Measurements published in patent EP0831877B1, “METABOLIC EFFECTS OF CERTAIN GLUTATHIONE ANALOGS” (TELIK, INC., priority 1995, dated 1996).
Several values for one entry are separate records, joined by “and”; a condition that tells them apart may be missing. Equal entries are not always repeated. Where two headings read alike, the source gives them in different places. Marks after values point to notes of the source that are not given here.

Legend:
[1] = in vitro half-life / metabolism in mouse blood; assay type: in vitro ADME
[2] = tested on: HT-29 (human colon adenocarcinoma) cells; experiment: modified clonogenic assay, potentiation of chlorambucil cytotoxicity; assay type: cell-based; settings: chlorambucil, mean ±S.D. of 2-3 experiments; for DMF (dose modification factor), Diethyl ester: HT-29, dose tested 12.5 µM
Method: HT-29 (human colon adenocarcinoma) cells were obtained from Dr. Roberto Ceriani (Cancer Research Fund of Contra Costa County, Walnut Creek, CA) and were used in log phase of growth unless otherwise specified. Chlorambucil (CMB) was obtained from Sigma (St. Louis, MO) and was dissolved in 100% ethanol. All GST inhibitors were dissolved in ethanol, DMSO, or water just prior to use. The same amount of solvent added to culture medium served as the vehicle control.
In a modified clonogenic assay for cytotoxicity, cells were suspended at 2 x 10^5 cells/ml in serum-free medium in the presence of vehicle or inhibitor. […] Cells were incubated for 2 hours, then varying doses of CMB were added. At the end of a second 2-hour incubation, cells were diluted to 7.5-10 x 10^3/ml in serum-containing medium and plated in quadruplicate at 200 µl/well in Microtest III microtiter plates.
Plates were incubated for 6 days and assayed by a modified methylene blue method. Briefly, cells were fixed with 1.25% glutaraldehyde in PBS then stained with 0.05% methylene blue in distilled water. Plates were washed several times in distilled water to remove unretained dye and retained dye was resolubilized in 0.03 N HCl. Plates were read at 650 nm in a Molecular Devices Vmax plate reader (Molecular Devices, Redwood City, CA). […] A dose modification factor (DMF), a measure of potentiation of cytotoxicity, was calculated for each inhibitor by dividing the IC50 value of CMB without inhibitor treatment by the IC50 value for CMB with inhibitor treatment.

[3] = tested on: VLB, a vinblastine-resistant variant of SKOV-3; experiment: standard clonogenic assay, potentiation of drug toxicity, VLB; assay type: cell-based
Method: (§1) ; SKOV-3 an ovarian carcinoma, and VLB, a vinblastine-resistant variant of SKOV-3. Four chemotherapeutic drugs, chlorambucil, adriamycin, mitomycin C and doxorubicin were used as the toxic agents. In these assays, the cells were seeded at 300 cells/well in 2 ml of medium in 6-well plates in the presence of the compounds used in the invention as the diethyl esters. […]. After incubation for 1-2 hours to permit cells to attach, varying doses of the chemotherapeutic agents were added. At least three replicate wells were plated for each test condition and the plates were incubated for two weeks. Colonies were fixed in 95% ethanol and stained with crystal violet for colony counting. IC50 values were determined for the chemotherapeutic agent in the presence or absence of the compound used in the invention and dose modification factors were calculated by dividing the IC50 value of drug without the compound by the IC50 value of the drug with the compound.

[4] = in vitro half-life in human blood; assay type: in vitro ADME
bone marrow GM-CFU [5] = experiment: stimulation of bone marrow GM-CFU after administration to mice; assay type: in vivo, B6D2F1 mice; settings: for most effective dose on bone marrow GM-CFU (Figure 4a): single treatment, harvest 24 hours
Method: In an illustrative assay three B6D2F1 mice were treated with various doses of benzyl PG intraperitoneally.
Mice in the control group were injected with water or saline. Bone marrow cells were harvested 24 hours after drug treatment and added to alpha minimum essential medium (alpha MEM) supplemented with methylcellulose (0.8% w/v), fetal bovine serum (20% v/v), deionized BSA (1% w/v), Pokeweed mitogen-stimulated spleen-cell conditioned medium (PWM-SCCM)^1 (10% v/v) and gentamycin (50 Tg/ml). One ml aliquots were plated (four replicate plates) and incubated for seven days at 37 °C. […] Spleens were removed aseptically from four male B6D2F1 mice enforced through a 200 Tm wire mesh screen to obtain a single cell suspension. Ten ml of the suspension (2-4 X 10^7 cell/ml was added to 90 ml alpha-MEM supplemented with 1% deionized BSA, 50 Tg/ml gentamicin, 0.3% freshly reconstituted pokeweed antigen, 10 µM 2-mercaptoethanol. The mixture was incubated for 5 days at […] in a 5% CO2 atmosphere and the result-ing conditioned medium was centrifuged at 800g for ten minutes and filtered through a 0.22 Tm filter. Aliquots were kept frozen at […] until use.
Bone marrow was harvested 24 hours after administering the compounds and GM-CFU levels measured as described above.

[6] = tested on: normal BDF1 mouse bone marrow multipotential (CFU-GEMM) progenitor cells; experiment: colony formation, mouse bone marrow CFU-GEMM; assay type: cell-based; settings: EPO + 50 ng/ml SLF
Method: (§2) The effects are dose-dependent, usually in the range of 1.0 to 10.0 µM, and in most cases for cells stimulated by GM-CSF, G-CSF, M-CSF, Flt3/Flk-2 and Steel factor (stem cell factor/c-kit ligand). Of particular interest was the finding that TER199 enhances colony formation stimulated by combinations of cytokines. Additionally, the enhancing effect is more pronounced in human than in murine bone marrow.

[7] = tested on: SKOV-3 an ovarian carcinoma; experiment: standard clonogenic assay, potentiation of drug toxicity, SKOV-3; assay type: cell-based; settings: test dose not given
Method: as §1

[8] = tested on: normal human bone marrow erythroid (BFU-E) progenitor cells; experiment: colony formation, human bone marrow BFU-E; assay type: cell-based
Method: as §2

bone marrow GM-CFU [9] = settings: TER199 90 mg/kg i.p. 1 hour prior to melphalan 10 mg/kg i.p.
interleukin-1 (IL-1) = experiment: stimulation of cytokine production in bone marrow stromal cell cultures; assay type: cell-based, human; settings: 100µM TER199 for one hour
Method: Human stromal cell cultures were established from freshly obtained human bone marrow as described by East, C.J. et al., Blood 5:1172 (1992). […] IL-1 levels were more than twice those of controls at both 24 and 48 hour time points.

[10] = EPO + 50 ng/ml SLF, TER199 1.0 µM
[11] = EPO + 50 ng/ml SLF, TER199 10 µM

## CCOC(=O)[C@@H](N)CCC(=O)N[C@@H](CSCc1ccccc1)C(=O)N[C@@H](C(=O)OCC)c1ccccc1 [TER199, γE ethyl ester-C(Bz)-R-(-)-ϕG ethyl ester]
[1]
  half-life: < 1 min
[2]
  DMF (dose modification factor), Diethyl ester: 1.65
[2]; listed as γE-C(Bz)-ϕG diethyl ester
  DMF (dose modification factor), Diethyl ester: 1.65 ± 0.04
[2]; diethyl ester
  DMF of DEE: 1.651
[3]; 5 µM TER199
  DMF for Mitomycin C: 0.82 (5 µM TER199)^c
[3]; TER199 at 25 µM
  DMF for Doxorubicin: 2.50
[3]; TER199 at 25 µM, TER183 dose not given
  DMF for Adriamycin: 2.50
[4]
  half-life: ~1.5 h
  half-life, comparison of the three compounds: approximately the same
Bone marrow GM-CFU [5]; 90 mg/kg intraperitoneally, marrow harvested 24 hours later, controls about 140
  GM-CFU: approximately 275 colonies/10^4 nucleated cells
Bone marrow GM-CFU [5]; IP administration
  most effective dose on bone marrow GM-CFU (Figure 4a): 60 to 90 mg/kg
Bone marrow GM-CFU [5]; bone marrow harvested 24 hours after administering
  effect on GM-CFU as a function of dosage, ester/amide forms (Figure 7): significantly more effective than the mixed ester amide (TER300)
Bone marrow GM-CFU [5]; oral administration
  most effective dose on bone marrow GM-CFU (Figure 4a): 120 to 180 mg/kg
Bone marrow GM-CFU [5]; single 60 mg/kg dose IP on day 0
  time of maximum stimulation of GM-CFU (Figure 5): day 2 and day 5
[6]; TER199 0.1 µM
  % change from control: 0%
  Colony number: 2±1
[6]; TER199 10 µM
  % change from control: 0%
  Colony number: 2±1
[7]
  DMF for Adriamycin: 1.14
  DMF for Chlorambucil: 1.24
  DMF for Doxorubicin: 1.14
[8]; EPO 1 U/ml, TER199 0.1 µM
  Colony number: 35±3 and 38±3
[8]; EPO 1 U/ml, TER199 1.0 µM
  Colony number: 60±2 and 58±1
[8]; EPO 1 U/ml, TER199 10 µM
  Colony number: 57±4 and 59±2
[8]; EPO + 50 ng/ml SLF, TER199 0.1 µM
  Colony number: 92±4 and 80±5
[8]; [10]
  % change from control: 22% and 35%
  Colony number: 107±7 and 80±3
[8]; [11]
  % change from control: 24% and 29%
  Colony number: 109±2 and 85±3
Bone marrow GM-CFU [9]
  GM-CFU: 8 % of control value
interleukin-1 (IL-1); 24 Hours
  IL-1 concentration: 323 pg/mL
  IL-1 concentration (% control): 283 % control
interleukin-1 (IL-1); 48 Hours
  IL-1 concentration: 245 pg/mL
  IL-1 concentration (% control): 253 % control
